Results taken from US20200390689A1, “CERDULATINIB-CONTAINING TOPICAL SKIN PHARMACEUTICAL COMPOSITIONS AND USES THEREOF” (Dermavant Sciences GmbH, priority 2018, published 2020).
Like-named read-outs stand apart in the source and are kept apart here.

Key:
Tyk2 = target: T1, Tyk2 (Homo sapiens, UniProt P29597); test: DiscoveRx cellular platform, Tyk2; format: cell-based
T1 construct: DiscoveRx

JAK2 = JAK2 (Homo sapiens, UniProt O60674); test: cell-based
Syk = target: T2, Syk (Homo sapiens, UniProt P43405); test: DiscoveRx cellular platform, Syk; format: cell-based
T2 construct: DiscoveRx

JAK1 = JAK1 (Homo sapiens, UniProt P23458); test: cell-based
Chain of JAK1 (P23458 whole entry): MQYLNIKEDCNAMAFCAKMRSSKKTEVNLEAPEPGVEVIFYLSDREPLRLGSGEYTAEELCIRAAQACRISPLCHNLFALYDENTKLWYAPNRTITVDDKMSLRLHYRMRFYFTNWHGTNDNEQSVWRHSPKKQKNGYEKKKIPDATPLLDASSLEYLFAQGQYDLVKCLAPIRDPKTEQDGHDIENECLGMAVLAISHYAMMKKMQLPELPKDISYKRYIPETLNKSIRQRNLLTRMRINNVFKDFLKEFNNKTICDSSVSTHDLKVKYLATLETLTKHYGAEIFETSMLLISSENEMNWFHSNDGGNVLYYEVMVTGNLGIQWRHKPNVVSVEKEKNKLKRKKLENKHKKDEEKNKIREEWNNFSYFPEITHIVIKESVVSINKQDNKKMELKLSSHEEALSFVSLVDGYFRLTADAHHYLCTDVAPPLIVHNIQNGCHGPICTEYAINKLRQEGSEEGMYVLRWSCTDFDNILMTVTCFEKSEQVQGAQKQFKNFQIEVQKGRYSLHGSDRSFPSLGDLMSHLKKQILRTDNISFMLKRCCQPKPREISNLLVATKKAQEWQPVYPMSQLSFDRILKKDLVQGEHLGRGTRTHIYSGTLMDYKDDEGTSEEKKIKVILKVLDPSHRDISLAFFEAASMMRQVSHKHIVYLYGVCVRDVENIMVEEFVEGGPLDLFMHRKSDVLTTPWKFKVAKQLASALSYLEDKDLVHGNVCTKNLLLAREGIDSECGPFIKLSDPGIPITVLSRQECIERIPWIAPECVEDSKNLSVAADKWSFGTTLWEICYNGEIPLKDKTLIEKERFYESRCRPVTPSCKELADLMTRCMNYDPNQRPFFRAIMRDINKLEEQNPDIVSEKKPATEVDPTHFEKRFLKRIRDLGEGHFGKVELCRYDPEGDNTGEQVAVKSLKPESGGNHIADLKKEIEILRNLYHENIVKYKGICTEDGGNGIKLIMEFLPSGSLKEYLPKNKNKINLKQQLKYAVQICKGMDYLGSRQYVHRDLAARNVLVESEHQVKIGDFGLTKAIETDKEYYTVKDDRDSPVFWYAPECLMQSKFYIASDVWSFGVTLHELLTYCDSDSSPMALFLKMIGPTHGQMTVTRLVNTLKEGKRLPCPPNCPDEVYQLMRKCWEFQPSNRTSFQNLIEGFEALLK

[1] = tested on: GM-CSF (JAK2-mediated) STAT5 Y694 phosphorylation; test: GM-CSF stimulated STAT5 Y694 phosphorylation in human whole blood; format: cell-based; settings: Monocyte, monocytes, read-out: IC50, GM-CSF induced STAT5 Y694 phosphorylation
[2] = tested on: JAK1/JAK3-dependent signaling pathways; test: Cytokine-mediated STAT phosphorylation in peripheral blood mononuclear cells (phospho-flow cytometry); format: cell-based; settings: Homo sapiens; PBMC; T cells and monocytes
[3] = tested on: DNCB-induced atopic dermatitis; test: DNCB-induced atopic dermatitis in the NC/Nga mouse model; format: in vivo
Method: Atopic dermatitis was induced by repeated application of DNCB (1-chloro-2,4-dinitrobenzene) to the dorsal skin of the ears/back. […] Lesions were evaluated on days 2, 8, 11, and 14.
Macroscopic lesion severity scores are depicted in FIG. 7. Macroscopic skin lesion severity was measured on the indicated Study Days by assessing (0-3 scale) the presence of erythema, edema, excoriation/erosion, and dryness scaling on the ears, neck, and dorsal skin of animals.
Serum IgE levels are depicted in FIG. 8. Serum samples obtained on Study Day 15 were utilized for IgE quantitation. Select cytokine data from the study are depicted in FIG. 9. Skin samples harvested on Day 15 were analyzed by LUMINEX for inflammatory cytokine levels for IL-4, IL-5, IL-13, and IL-31.

vitiligo = test: Study DMVT-502-9025, mouse model of vitiligo; format: in vivo
Method: The model mimics human vitiligo by inducing epidermal depigmentation with autoreactive CD8+ T-cell accumulation. A schematic of the model is depicted in FIG. 15. […] Ten mice were used in the study: three REX3 reporter mice for cytokines CXCL9 and CXCL10 and seven SCF (stem cell factor) mice. The vitiligo study timeline is depicted in FIG. 16. The following assessments were performed during the study: • Blinded scoring of ears, tail, nose, and ventral feet (0-5 scale) • Epidermal, dermal, spleen, and lymph node PMEL (premelanosome protein) cell count • Epidermal/dermal APC (antigen-presenting cell) count • Keratinocyte cytokine expression

[4] = tested on: monocyte differentiation into immature DCs; test: IL-4/GM-CSF-mediated monocyte differentiation to immature dendritic cells (flow cytometry); format: cell-based; settings: Homo sapiens, 120 h, purified monocytes, CD1a expression after five days
Method: Dendritic cells (DCs) are important antigen presenting cells that play an integral role in mediating inflammatory skin diseases. A subset of DCs are derived from monocytes and this differentiation is driven by IL-4/GM-CSF co-stimulation. The ability of DMVT-502 to disrupt the signaling responsible for monocyte differentiation into immature DCs was assessed by flow cytometry. […] Five days later, cells were stained for CD14 (monocyte marker) and CD1a (immature dendritic cell marker) and assessed for immature DC differentiation.

[5] = tested on: IL-6 (JAK1/2/Tyk2) STAT3 Y705 phosphorylation; test: IL-6 stimulated STAT3 Y705 phosphorylation in human whole blood; format: cell-based; settings: Monocyte, monocytes
Description: (§1) To evaluate downstream signaling following cytokine stimulation, human whole blood was stimulated with IL-2 (JAK1/3-mediated signaling), which results in phosphorylation of STAT5 at tyrosine residue 694 (Y694). […] IL-6 (JAK1/2/Tyk2) stimulation leads to STAT3 Y705 phosphorylation in monocytes.

[6] = tested on: IL-4-mediated upregulation of CD23 and CD25 on monocytes; test: IL-4-mediated upregulation of cell surface markers CD23 and CD25 on monocytes; format: cell-based; settings: Homo sapiens, Monocyte
[7] = tested on: IL-4 (JAK1/3-mediated) STAT6 Y641 phosphorylation; test: IL-4 stimulated STAT6 Y641 phosphorylation in human whole blood; format: cell-based
Description: as §1

[8] = tested on: IL-2 (JAK1/3-mediated signaling) STAT5 Y694 phosphorylation; test: IL-2 stimulated STAT5 Y694 phosphorylation in human whole blood; format: cell-based
Description: as §1

[9] = 30 and 60 mg/kg oral, vs vehicle

T1 sequence (P29597 whole entry): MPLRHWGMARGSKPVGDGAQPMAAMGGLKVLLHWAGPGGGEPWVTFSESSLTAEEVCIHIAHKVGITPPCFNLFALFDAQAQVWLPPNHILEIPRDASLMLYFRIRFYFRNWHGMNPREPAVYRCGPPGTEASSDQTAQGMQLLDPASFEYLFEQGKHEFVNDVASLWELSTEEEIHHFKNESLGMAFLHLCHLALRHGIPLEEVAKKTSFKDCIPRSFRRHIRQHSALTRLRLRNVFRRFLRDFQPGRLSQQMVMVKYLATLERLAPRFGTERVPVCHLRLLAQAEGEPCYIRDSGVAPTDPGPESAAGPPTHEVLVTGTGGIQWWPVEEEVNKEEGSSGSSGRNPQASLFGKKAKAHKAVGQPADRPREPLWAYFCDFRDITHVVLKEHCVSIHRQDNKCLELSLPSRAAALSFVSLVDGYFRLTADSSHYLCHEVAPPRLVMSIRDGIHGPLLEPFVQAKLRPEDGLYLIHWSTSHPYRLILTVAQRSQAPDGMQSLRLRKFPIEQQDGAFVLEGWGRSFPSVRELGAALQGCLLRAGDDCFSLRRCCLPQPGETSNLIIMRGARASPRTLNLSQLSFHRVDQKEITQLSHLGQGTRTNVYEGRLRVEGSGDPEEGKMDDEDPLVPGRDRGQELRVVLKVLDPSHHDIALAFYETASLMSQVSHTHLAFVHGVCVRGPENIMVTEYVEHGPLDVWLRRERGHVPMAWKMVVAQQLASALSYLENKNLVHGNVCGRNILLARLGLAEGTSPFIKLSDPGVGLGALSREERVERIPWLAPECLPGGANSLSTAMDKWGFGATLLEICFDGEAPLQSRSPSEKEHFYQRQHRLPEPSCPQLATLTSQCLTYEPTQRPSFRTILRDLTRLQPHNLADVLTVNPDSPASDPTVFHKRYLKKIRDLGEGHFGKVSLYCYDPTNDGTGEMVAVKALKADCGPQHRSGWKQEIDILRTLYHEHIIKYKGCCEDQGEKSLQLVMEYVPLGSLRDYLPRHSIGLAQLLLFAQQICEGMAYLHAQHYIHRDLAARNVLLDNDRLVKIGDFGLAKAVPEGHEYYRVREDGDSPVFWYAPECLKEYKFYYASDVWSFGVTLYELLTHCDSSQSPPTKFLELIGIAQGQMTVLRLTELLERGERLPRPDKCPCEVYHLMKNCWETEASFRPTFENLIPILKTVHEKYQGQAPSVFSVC
Chain of JAK2 (O60674 whole entry): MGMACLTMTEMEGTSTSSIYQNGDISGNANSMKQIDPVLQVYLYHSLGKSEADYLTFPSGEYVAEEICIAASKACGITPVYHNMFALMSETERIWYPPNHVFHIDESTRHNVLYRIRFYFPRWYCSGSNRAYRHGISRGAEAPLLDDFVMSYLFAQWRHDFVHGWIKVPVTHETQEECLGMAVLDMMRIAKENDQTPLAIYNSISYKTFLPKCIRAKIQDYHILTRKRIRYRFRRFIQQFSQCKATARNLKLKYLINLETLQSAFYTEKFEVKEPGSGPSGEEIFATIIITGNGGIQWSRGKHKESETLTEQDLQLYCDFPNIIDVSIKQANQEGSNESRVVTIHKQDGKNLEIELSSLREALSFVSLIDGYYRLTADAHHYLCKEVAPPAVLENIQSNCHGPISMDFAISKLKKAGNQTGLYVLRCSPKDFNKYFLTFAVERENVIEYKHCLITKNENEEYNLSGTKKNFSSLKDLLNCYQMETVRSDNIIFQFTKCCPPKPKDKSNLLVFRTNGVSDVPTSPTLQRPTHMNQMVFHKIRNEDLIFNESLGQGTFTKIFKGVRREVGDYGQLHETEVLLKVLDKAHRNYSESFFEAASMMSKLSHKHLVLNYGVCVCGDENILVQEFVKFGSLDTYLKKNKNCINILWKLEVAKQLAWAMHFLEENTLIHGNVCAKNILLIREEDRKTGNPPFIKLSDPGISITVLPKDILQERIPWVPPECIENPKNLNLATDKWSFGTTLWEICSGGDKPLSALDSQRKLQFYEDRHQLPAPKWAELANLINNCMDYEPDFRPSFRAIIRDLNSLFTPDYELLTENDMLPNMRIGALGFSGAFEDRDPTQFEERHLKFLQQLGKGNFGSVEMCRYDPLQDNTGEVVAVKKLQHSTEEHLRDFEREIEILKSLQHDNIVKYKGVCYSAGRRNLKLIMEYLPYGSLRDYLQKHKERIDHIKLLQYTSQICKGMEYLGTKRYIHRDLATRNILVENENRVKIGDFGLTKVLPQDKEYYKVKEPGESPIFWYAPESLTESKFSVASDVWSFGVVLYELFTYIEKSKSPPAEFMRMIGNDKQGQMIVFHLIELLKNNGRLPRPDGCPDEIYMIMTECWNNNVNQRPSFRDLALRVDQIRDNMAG

**Q.** For `CCS(=O)(=O)N1CCN(c2ccc(Nc3ncc(C(N)=O)c(NC4CC4)n3)cc2)CC1` [DMVT-502, Cerdulatinib], which IC50 (Tyk2) is on record?
**A.** 1720 nM

**Q.** And the IC50 (JAK2)?
**A.** 4860 nM

**Q.** And the IC50 (Syk)?
**A.** 1280 nM

**Q.** And the IC50 (JAK1)?
**A.** 98 nM

**Q.** And the IC50 [1]?
**A.** ~4000 nM

**Q.** And the IC50 [2]?
**A.** < 200 nM

**Q.** And the “Pro-inflammatory cytokine levels in skin” value ([3]; Day 15, topical treatment)?
**A.** limited suppression

**Q.** What about the “Serum IgE levels” value ([3]; Study Day 15, topical therapy) of the same compound?
**A.** trends towards reduction

**Q.** What about the “CD3+, CD8− T-cell counts in the spleen” value (vitiligo; 60 mg/kg oral) of the same compound?
**A.** significantly reduced

**Q.** And the “Host T-cell counts in blood” value (vitiligo; 60 mg/kg oral)?
**A.** significantly decreased

**Q.** And the “PMEL T-cell counts in dermis and blood” value (vitiligo; 60 mg/kg oral)?
**A.** significantly reduced

**Q.** What about the “APCs in the dermal skin compartment and Langerhans cells in the epidermal skin compartment” value (vitiligo; 60 mg/kg oral, vs vehicle) of the same compound?
**A.** significantly reduced

**Q.** And the Vitiligo scores (vitiligo; 30 and 60 mg/kg once daily oral, 5 weeks, vs vehicle)?
**A.** significantly decreased

**Q.** What about the “Host-derived total T-cell counts in the spleen” value (vitiligo; 30 and 60 mg/kg oral) of the same compound?
**A.** significantly reduced

**Q.** What about the “APC counts in lymph nodes and the spleen” value (vitiligo; [9]) of the same compound?
**A.** significantly reduced

**Q.** And the “PMEL T-cell counts in the epidermis and dermis” value (vitiligo; [9])?
**A.** significantly reduced

**Q.** And the “CXCL9 and CXCL10 expression in lymph node APCs” value (vitiligo; 30 or 60 mg/kg oral)?
**A.** Reduced

**Q.** And the “Lymph node or spleen PMEL T cells” value (vitiligo; 30 or 60 mg/kg oral)?
**A.** no significant differences

**Q.** What about the “CXCL9, CXCL10, and dual expression in keratinocytes” value (vitiligo; SCF/REX3 mice, vs vehicle) of the same compound?
**A.** trends towards reduced

**Q.** And the Total keratinocyte counts (vitiligo; between treatment groups)?
**A.** No decrease

**Q.** And the IC50 [4]?
**A.** ~100 nM

**Q.** And the IC50 [5]?
**A.** 260 nM

**Q.** And the IC50 ([6]; read-out: IC50, IL-4-mediated upregulation of CD23)?
**A.** 230 nM

**Q.** And the IC50 ([6]; read-out: IC50, IL-4-mediated upregulation of CD25)?
**A.** 420 nM

**Q.** What about the IC50 ([7]; B-cell, CD19+ B cells) of the same compound?
**A.** 920 nM

**Q.** And the IC50 ([7]; CD4+ T cells)?
**A.** 580 nM

**Q.** And the IC50 ([7]; Monocyte, CD14+ monocytes)?
**A.** 998 nM

**Q.** What about the IC50 ([7]; T-cell, CD8+ T cells) of the same compound?
**A.** 330 nM

**Q.** What about the IC50 ([8]; CD4+ T cells) of the same compound?
**A.** 300 nM

**Q.** What about the IC50 ([8]; T-cell, CD8+ T cells) of the same compound?
**A.** 160 nM
